This assay deals with Angiotensin-converting enzyme (Homo sapiens, UniProt P12821). The experiment in a line: Inhibition of ACE (unknown origin) using 3-Hydroxybutylyl-Gly-Gly-Gly substrate assessed as reduction in 3-Hyroxybutylic acid generation incubated for 1 hr by colorimetric assay.
Angiotensin-converting enzyme, sequence (P12821 whole entry): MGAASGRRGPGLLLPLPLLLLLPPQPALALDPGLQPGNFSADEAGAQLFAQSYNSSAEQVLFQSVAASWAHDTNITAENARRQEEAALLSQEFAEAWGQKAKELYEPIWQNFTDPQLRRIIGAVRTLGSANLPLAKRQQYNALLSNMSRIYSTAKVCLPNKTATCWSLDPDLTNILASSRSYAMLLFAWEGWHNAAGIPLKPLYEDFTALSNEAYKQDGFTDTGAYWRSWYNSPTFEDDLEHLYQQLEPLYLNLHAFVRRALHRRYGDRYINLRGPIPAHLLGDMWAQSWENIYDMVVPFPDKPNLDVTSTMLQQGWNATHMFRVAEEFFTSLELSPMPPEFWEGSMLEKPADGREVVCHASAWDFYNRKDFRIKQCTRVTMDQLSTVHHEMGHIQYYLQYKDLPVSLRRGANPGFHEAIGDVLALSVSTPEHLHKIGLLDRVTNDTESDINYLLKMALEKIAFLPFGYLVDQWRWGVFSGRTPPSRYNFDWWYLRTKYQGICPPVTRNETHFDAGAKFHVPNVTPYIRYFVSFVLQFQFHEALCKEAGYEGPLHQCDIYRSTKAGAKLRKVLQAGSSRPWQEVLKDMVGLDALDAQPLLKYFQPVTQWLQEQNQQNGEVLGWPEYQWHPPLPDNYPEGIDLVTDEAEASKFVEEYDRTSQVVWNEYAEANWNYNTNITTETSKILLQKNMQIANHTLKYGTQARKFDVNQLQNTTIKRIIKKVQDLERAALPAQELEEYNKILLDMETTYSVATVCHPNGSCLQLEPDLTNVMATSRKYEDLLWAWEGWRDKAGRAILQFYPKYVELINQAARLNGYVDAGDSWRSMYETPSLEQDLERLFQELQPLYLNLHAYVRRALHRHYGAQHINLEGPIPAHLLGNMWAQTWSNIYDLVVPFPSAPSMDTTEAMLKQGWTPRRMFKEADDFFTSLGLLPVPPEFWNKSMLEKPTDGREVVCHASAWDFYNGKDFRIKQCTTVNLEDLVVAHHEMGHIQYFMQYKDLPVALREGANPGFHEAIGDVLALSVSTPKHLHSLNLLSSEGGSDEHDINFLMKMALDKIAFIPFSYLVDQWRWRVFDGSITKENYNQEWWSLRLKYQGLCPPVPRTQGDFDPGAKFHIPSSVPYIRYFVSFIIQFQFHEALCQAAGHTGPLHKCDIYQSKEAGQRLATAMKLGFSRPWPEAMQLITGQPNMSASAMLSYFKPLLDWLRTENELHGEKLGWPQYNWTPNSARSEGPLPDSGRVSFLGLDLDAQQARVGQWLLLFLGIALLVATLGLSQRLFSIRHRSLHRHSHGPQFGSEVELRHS

Consider `N=C(N)NCCC[C@@H](N)C(=O)O`, for which the IC50 result is given as “Not Active”.

`O=C(OC1O[C@H](CO)[C@@H](O)[C@H](O)[C@H]1O)C1CSSC1` (stereo not given in full): the IC50 (read-out: IC50) came out at 347 µM.

Turning to `O=C(O)C1CSSC1`, the IC50 entry was “Not Active”.

Regarding `N=C(N)NCCC[C@H](N)C(=O)O` [ARGININE], the IC50 result is “Not Active”.

On to `N[C@@H](CC(=O)O)C(=O)O` [ASPARTIC ACID], for which the IC50 entry is “Not Active”.

The record behind these values is ChEMBL document CHEMBL3580612, “Top-down Targeted Metabolomics Reveals a Sulfur-Containing Metabolite with Inhibitory Activity against Angiotensin-Converting Enzyme in Asparagus officinalis” (J Nat Prod, 2015).
